Measured values taken from paper PMC1500806, “Carrageenan Is a Potent Inhibitor of Papillomavirus Infection” (PLoS Pathogens, 2006).
Converted amounts (≈) assume the structure as drawn. Positions of bridges follow the written chain, without caps; N, C: chain ends. Non-standard residues stand in square brackets, D forms with d. Residues, ends and D or L forms follow the SMILES beside them. *: point of attachment. Ileψ(thiazoline)Cys = CC[C@H](C)[C@H](N)C1=N[C@H](C(=O)*)CS1; dOrn = NCCC[C@@H](N)C(=O)O

System: not listed separately
Experiment: Cytotoxicity (WST-1 turnover and/or cell morphology)
Type: cell-based
Conditions: human, HeLa cells; >50% reduction in WST-1 turnover and/or altered cell morphology
Description: (§1) Compounds were tested using a previously described PsV-based papillomavirus inhibition assay. Briefly, HeLa cells were plated at 6,000 cells/well in 50 μl of medium in 96-well plates. Candidate inhibitors were dissolved at 1–10 mg/ml (or reconstituted as directed by manufacturer) in sterile water or appropriate solvent, then subjected to a ten-point three-fold serial dilution covering an appropriate concentration range. Diluted candidate inhibitor (50 μl) was added to preplated HeLa cells, followed by 50 μl of diluted PsV stock. The cells were incubated for 24 h, fed by addition of 100 μl of DMEM-10, then subjected to flow cytometric analysis 48–56 h after infection. IC50 values and 95% CI were determined using Prism (GraphPad Software, San Diego, California, United States) to calculate a variable slope sigmoidal dose-response curve.
(§2) Cytotoxicity was defined as a >50% reduction in the net turnover of the metabolic substrate WST-1 (Roche, Indianapolis, Indiana, United States) and/or by the appearance of dramatic alterations in the microscopic appearance of cell morphology at the time of harvest.

Molecule | CC50 [µg/mL]
CC[C@H](C)[C@@H]1NC(=O)CNC(=O)[C@H](CCCNC(=N)N)NC(=O)[C@H](Cc2ccc(O)cc2)NC(=O)[C@@H]2CSSC[C@H](NC1=O)C(=O)N[C@@H](Cc1ccc(O)cc1)C(=O)N[C@@H](CCCNC(=N)N)C(=O)N[C@@H](CCCNC(=N)N)C(=O)N[C@H](C(=O)N[C@@H](CCCNC(=N)N)C(N)=O)CSSC[C@H](NC(=O)[C@H](Cc1c[nH]c3ccccc13)NC(=O)[C@@H](N)CCCCN)C(=O)N[C@@H](Cc1ccccc1)C(=O)N[C@@H](CCCNC(=N)N)C(=O)N[C@@H](C(C)C)C(=O)N2 [Tachyplesin-I] (H-KWCFRVCYRGICYRRCR-NH2; disulfide 3-16, 7-12) | 100 (≈ 44.2 µM)
CC[C@H](C)[C@H](N)C1=N[C@H](C(=O)N[C@@H](CC(C)C)C(=O)N[C@H](CCC(=O)O)C(=O)N[C@H](C(=O)N[C@H]2CCCCNC(=O)[C@H](CC(N)=O)NC(=O)[C@@H](CC(=O)O)NC(=O)[C@H](Cc3cnc[nH]3)NC(=O)[C@@H](Cc3ccccc3)NC(=O)[C@H]([C@@H](C)CC)NC(=O)[C@@H](CCCN)NC2=O)[C@@H](C)CC)CS1 [Bacitracin] ({Ileψ(thiazoline)Cys}-L[dE]IK[dOrn]I[dF]H[dD]N; lactam 4-C (inferred)) | > 420
N=C(N)NCCC[C@H](NC(=O)[C@H](CCCNC(=N)N)NC(=O)[C@H](CCCNC(=N)N)NC(=O)[C@H](CCCNC(=N)N)NC(=O)[C@H](CCCNC(=N)N)NC(=O)[C@H](CCCNC(=N)N)NC(=O)[C@@H](N)CCCNC(=N)N)C(=O)O [Poly-arginine7] | > 100
CSCC[C@H](NC(=O)[C@H](CCCNC(=N)N)NC(=O)[C@H](Cc1c[nH]c2ccccc12)NC(=O)[C@H](CCC(N)=O)NC(=O)[C@H](Cc1c[nH]c2ccccc12)NC(=O)[C@H](CCCNC(=N)N)NC(=O)[C@@H](N)CCCNC(=N)N)C(=O)N[C@@H](CCCCN)C(=O)N[C@@H](CCCCN)C(=O)N[C@@H](CC(C)C)C(=O)NCC(=O)O [Lactoferricin B 4–14 fragment] (H-RRWQWRMKKLG-OH; N-terminus and C-terminus assumed) | > 15
C[C@@H](O)[C@H](N)C(=O)N[C@@H](CCCCN)C(=O)N1CCC[C@H]1C(=O)N[C@@H](CCCNC(=N)N)C(=O)O [Tuftsin] (H-TKPR-OH; N-terminus and C-terminus assumed) | > 100
CC(C)[C@H](NC(=O)[C@H](CCCCN)NC(=O)CNC(=O)CNC(=O)[C@H](CCC(N)=O)NC(=O)[C@H](CCCCN)NC(=O)CNC(=O)[C@H](CCCNC(=N)N)NC(=O)CNC(=O)[C@@H](N)CCCCN)C(=O)N[C@@H](CCCNC(=N)N)C(=O)N[C@@H](C)C(=O)N[C@@H](CCCCN)C(=O)N[C@@H](C)C(=O)N[C@@H](CCCCN)C(=O)N[C@H](C(=O)N[C@@H](CCCNC(=N)N)C(=O)N[C@@H](CO)C(=O)N[C@@H](CO)C(=O)O)[C@@H](C)O [Parasin-I] (H-KGRGKQGGKVRAKAKTRSS-OH) | > 100
CC[C@H](C)[C@H](NC(=O)CNC(=O)[C@H](CC(=O)O)NC(=O)[C@H](CCCNC(=N)N)NC(=O)[C@@H](NC(=O)[C@H](CC(N)=O)NC(=O)[C@H](CCC(N)=O)NC(=O)CNC(=O)[C@@H](NC(=O)[C@H](CCCCN)NC(=O)[C@H](CCC(=O)O)NC(=O)[C@@H](NC(=O)[C@H](CCCCN)NC(=O)[C@H](CCCCN)NC(=O)[C@H](Cc1ccccc1)NC(=O)[C@H](CC(C)C)NC(=O)[C@H](CCCCN)NC(=O)[C@H](Cc1c[nH]c2ccccc12)NC(=O)[C@@H](N)CCCCN)[C@@H](C)CC)C(C)C)[C@@H](C)CC)C(=O)N[C@H](C(=O)N[C@@H](CCCCN)C(=O)N[C@@H](C)C(=O)NCC(=O)N1CCC[C@H]1C(=O)N[C@@H](C)C(=O)N[C@H](C(=O)N[C@@H](C)C(=O)N[C@H](C(=O)N[C@H](C(=O)NCC(=O)N[C@@H](CCC(N)=O)C(=O)N[C@@H](C)C(=O)N[C@H](C(=O)N[C@@H](CCC(N)=O)C(=O)N[C@H](C(=O)N[C@@H](C)C(=O)N[C@@H](CCCCN)C(N)=O)[C@@H](C)CC)[C@@H](C)O)C(C)C)C(C)C)C(C)C)[C@@H](C)CC [Cecropin A (porcine)] (H-KWKLFKKIEKVGQNIRDGIIKAGPAVAVVGQATQIAK-NH2; N-terminus and C-terminus assumed) | > 100
CC[C@H](C)[C@H](NC(=O)CN)C(=O)NCC(=O)N[C@@H](C)C(=O)N[C@H](C(=O)N[C@@H](CC(C)C)C(=O)N[C@@H](CCCCN)C(=O)N[C@H](C(=O)N[C@@H](CC(C)C)C(=O)N[C@H](C(=O)N[C@H](C(=O)NCC(=O)N[C@@H](CC(C)C)C(=O)N1CCC[C@H]1C(=O)N[C@@H](C)C(=O)N[C@@H](CC(C)C)C(=O)N[C@H](C(=O)N[C@@H](CO)C(=O)N[C@@H](Cc1c[nH]c2ccccc12)C(=O)N[C@H](C(=O)N[C@@H](CCCCN)C(=O)N[C@@H](CCCNC(=N)N)C(=O)N[C@@H](CCCCN)C(=O)N[C@@H](CCCNC(=N)N)C(=O)N[C@@H](CCC(N)=O)C(=O)N[C@@H](CCC(N)=O)C(N)=O)[C@@H](C)CC)[C@@H](C)CC)[C@@H](C)O)[C@@H](C)O)C(C)C)C(C)C [Melittin] | 4 (≈ 1.41 µM)
CC[C@H](C)[C@H](NC(=O)CN)C(=O)NCC(=O)N[C@@H](CCCCN)C(=O)N[C@@H](Cc1ccccc1)C(=O)N[C@@H](CC(C)C)C(=O)N[C@@H](Cc1c[nH]cn1)C(=O)N[C@@H](CO)C(=O)N[C@@H](C)C(=O)NCC(=O)N[C@@H](CCCCN)C(=O)N[C@@H](Cc1ccccc1)C(=O)NCC(=O)N[C@@H](CCCCN)C(=O)N[C@@H](C)C(=O)N[C@@H](Cc1ccccc1)C(=O)N[C@H](C(=O)NCC(=O)N[C@@H](CCC(=O)O)C(=O)N[C@H](C(=O)N[C@@H](CCSC)C(=O)N[C@@H](CCCCN)C(=O)N[C@@H](CO)C(=O)O)[C@@H](C)CC)C(C)C [Magainin-I] (H-GIGKFLHSAGKFGKAFVGEIMKS-OH) | > 100
CC(C)C[C@H](NC(=O)[C@H](C)NC(=O)[C@H](CCCCN)NC(=O)[C@H](CCCCN)NC(=O)[C@H](CC(C)C)NC(=O)[C@H](C)NC(=O)[C@H](CCCCN)NC(=O)[C@H](CCCCN)NC(=O)[C@H](CC(C)C)NC(=O)[C@H](CCCCN)NC(=O)[C@H](CCCCN)NC(=O)[C@H](CC(C)C)NC(=O)[C@H](C)NC(=O)[C@H](CCCCN)NC(=O)[C@H](CCCCN)NC(=O)[C@H](CC(C)C)NC(=O)[C@H](C)NC(=O)[C@H](CCCCN)NC(=O)[C@H](CC(C)C)NC(=O)[C@H](C)NC(=O)[C@H](CC(C)C)NC(=O)[C@H](C)NC(=O)[C@@H](N)Cc1ccccc1)C(=O)O [Hecate] (H-FALALKALKKALKKLKKALKKAL-OH; N-terminus and C-terminus assumed) | 17 (≈ 6.7 µM)
CC[C@H](C)[C@H](NC(=O)[C@H](CCCCN)NC(=O)[C@H](CCCCN)NC(=O)[C@H](Cc1ccccc1)NC(=O)[C@H](CC(C)C)NC(=O)[C@H](CCCCN)NC(=O)[C@H](Cc1c[nH]c2ccccc12)NC(=O)[C@@H](N)CCCCN)C(=O)NCC(=O)N[C@@H](C)C(=O)N[C@H](C(=O)N[C@@H](CC(C)C)C(=O)N[C@@H](CCCCN)C(=O)N[C@H](C(=O)N[C@@H](CC(C)C)C(N)=O)C(C)C)C(C)C [Cecropin A-Mellitin hybrid] (H-KWKLFKKIGAVLKVL-NH2; N-terminus and C-terminus assumed) | 11 (≈ 6.21 µM)

System: HeLa cells
Experiment: as above
Type: cell-based
Conditions: not given
Description: as §1, §2

Molecule | Cytotoxicity
O=C(O)c1cc(SSc2ccc([N+](=O)[O-])c(C(=O)O)c2)ccc1[N+](=O)[O-] [Ellman's reagent] | 1,300 μg/ml
OCCS [2-Mercaptoethanol] | >100 µg/mL
C[C@@H]1[C@H](O)[C@@H](C)/C=C/C=C/CC/C=C/C=C/C=C/C=C/C(O[C@H]2O[C@H](C)[C@@H](O)[C@H](N)[C@@H]2O)CC2O[C@](O)(CC(O)C(O)CCC(O)CC(O)CC(O)CC(=O)O[C@H]1C)CC(O)C2C(=O)O (stereo partly shown) [Nystatin] | 100 µg/mL
O[C@@H](CS)[C@@H](O)CS [Dithiothreotol] | >100 µg/mL
Cl.N=C(N)N [Guanidine hydrochloride] | >475 µg/mL
CCCCCCCCCCCCOS(=O)(=O)[O-].[Na+] [Sodium dodecyl sulfate] | 333 µg/mL

Same assay, conditions: >50% reduction in WST-1 turnover and/or altered cell morphology

Molecule | Cytotoxicity [µg/mL]
Gelatin | >100
Poly-(arginine-aminocaproyl) | >100
O=[N+]([O-])c1ccc(Cl)c([N+](=O)[O-])c1 [1-Chloro-2,4-dinitrobenzene (DNCB), 1-Chloro-2,4-dinitrobenzene] | 7
Gramicidins A-D [Gramicidins A-D (B. Brevis)] | 1.2

Same assay, conditions: human

Molecule | Cytotoxicity [µg/mL]
CCCCS(=N)(=O)CCC(N)C(=O)O (stereo not shown) [Buthionine sulfoximine (BSO), Buthionine sulfoximine] | >7
